In PubChem BioAssay (NCI):
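These data come from cells grown in 96-well plates and exposed to compound for 48 hours at five concentrations. GI50: concentration for 50% inhibition of growth. At the TGI there is no net growth.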

Key:
Assay in all cases: NCI-60 cell line screen, 48 h
OVCAR-5 ovarian = tested on: OVCAR-5 ovarian
786-0 renal = tested on: 786-0 renal
COLO 205 colon = tested on: COLO 205 colon
MCF7 breast = tested on: MCF7 breast
U251 CNS = tested on: U251 CNS
SF-539 CNS = tested on: SF-539 CNS
HOP-92 NSCLC = tested on: HOP-92 NSCLC
DU-145 prostate = tested on: DU-145 prostate
NCI-H460 lung = tested on: NCI-H460 lung
SK-MEL-5 melanoma = tested on: SK-MEL-5 melanoma

Row | SMILES | TGI (OVCAR-5 ovarian) [µM] | TGI (786-0 renal) [µM] | TGI (COLO 205 colon) [µM] | TGI (MCF7 breast) [µM] | TGI (U251 CNS) [µM] | TGI (SF-539 CNS) [µM] | TGI (HOP-92 NSCLC) [µM] | TGI (DU-145 prostate) [µM] | TGI (NCI-H460 lung) [µM] | TGI (SK-MEL-5 melanoma) [µM] | GI50 (SF-539 CNS) [µM] | GI50 (DU-145 prostate) [µM]
1 | Nc1n[nH]c2ccccc12 | > 100 | > 100 | > 100 | > 100 | > 100 | > 100 | > 100 | > 100 | > 100 | > 100 | – | –
2 | Cc1ccc(-n2cc(-c3ccc(Cl)cc3)c3c2N=CN2NC(c4ccco4)=NC32)cc1 (configuration not stated) | > 100 | 17.4 | > 100 | > 100 | 20.8 | 51.3 | 9.88 | > 100 | > 100 | > 100 | – | –
3 | COc1cc2c3c(n(C)c(=O)c2cc1OC)-c1cc2c(cc1/C3=C/CCCCBr)OCO2 | > 100 | > 100 | > 100 | > 100 | > 100 | > 100 | > 100 | > 100 | > 100 | > 100 | 7.07 | 4.46
